Measured values reported in the NIST ThermoML archive (doi:10.1016/j.fluid.2019.112283).

Key:
[1] = excess molar enthalpy (molar enthalpy of mixing); xn = mol fraction of the nth substance listed; details: 298.15 K, 101 kPa, Liquid, Flow calorimetry
[2] = 298.15 K; 101.33 kPa; Liquid; Vibrating tube method

CCCCNCCCC [dibutylamine] + CC(=O)N(C)C
[1]
Details | excess molar enthalpy [kcal/mol]
x2 = 0.0499 | 0.0359
x2 = 0.0976 | 0.066
x2 = 0.151 | 0.0968
x2 = 0.1969 | 0.12
x2 = 0.2472 | 0.141
x2 = 0.3002 | 0.161
x2 = 0.3526 | 0.175
x2 = 0.3983 | 0.185
x2 = 0.4472 | 0.193
x2 = 0.5007 | 0.199
x2 = 0.5507 | 0.199
x2 = 0.6007 | 0.197
x2 = 0.6477 | 0.192
x2 = 0.6968 | 0.181
x2 = 0.7481 | 0.167
x2 = 0.8004 | 0.148
x2 = 0.8512 | 0.121
x2 = 0.9019 | 0.0887
x2 = 0.9507 | 0.0485

CCCCNCCCC [dibutylamine] + CN(C)C=O
[1]
Details | excess molar enthalpy [kcal/mol]
x2 = 0.0491 | 0.0449
x2 = 0.1014 | 0.0923
x2 = 0.1488 | 0.13
x2 = 0.2006 | 0.163
x2 = 0.2482 | 0.187
x2 = 0.3006 | 0.21
x2 = 0.351 | 0.228
x2 = 0.4021 | 0.247
x2 = 0.4497 | 0.259
x2 = 0.4982 | 0.266
x2 = 0.5505 | 0.267
x2 = 0.599 | 0.262
x2 = 0.65 | 0.253
x2 = 0.6997 | 0.239
x2 = 0.7506 | 0.22
x2 = 0.7994 | 0.195
x2 = 0.8503 | 0.16
x2 = 0.9 | 0.117
x2 = 0.9501 | 0.0645

CN(C)C=O [dimethylformamide]
Details | mass density [kg/m3]
[2] | 943.78

CCCNCCC [dipropylamine]
Details | mass density [kg/m3]
[2] | 733.37

CCCNCCC [dipropylamine] + CC(=O)N(C)C
[1]
Details | excess molar enthalpy [kcal/mol]
x2 = 0.0597 | 0.0234
x2 = 0.0996 | 0.0397
x2 = 0.1496 | 0.0562
x2 = 0.2011 | 0.0717
x2 = 0.2497 | 0.0856
x2 = 0.3009 | 0.0954
x2 = 0.3462 | 0.104
x2 = 0.4062 | 0.114
x2 = 0.4491 | 0.118
x2 = 0.5035 | 0.123
x2 = 0.5497 | 0.124
x2 = 0.5972 | 0.122
x2 = 0.6495 | 0.118
x2 = 0.6975 | 0.113
x2 = 0.7478 | 0.104
x2 = 0.8009 | 0.092
x2 = 0.8504 | 0.076
x2 = 0.8989 | 0.0571
x2 = 0.9368 | 0.0373
x2 = 0.9507 | 0.0301

CCCNCCC [dipropylamine] + CN(C)C=O
[1]
Details | excess molar enthalpy [kcal/mol]
x2 = 0.0358 | 0.021
x2 = 0.1002 | 0.0576
x2 = 0.1512 | 0.0839
x2 = 0.1984 | 0.107
x2 = 0.2504 | 0.126
x2 = 0.3016 | 0.142
x2 = 0.3483 | 0.157
x2 = 0.4005 | 0.166
x2 = 0.4495 | 0.176
x2 = 0.5005 | 0.179
x2 = 0.5505 | 0.18
x2 = 0.6012 | 0.178
x2 = 0.6587 | 0.169
x2 = 0.6997 | 0.161
x2 = 0.7518 | 0.147
x2 = 0.7983 | 0.13
x2 = 0.8485 | 0.105
x2 = 0.8991 | 0.076
x2 = 0.9504 | 0.0406
